Several values for one entry are separate records, joined by “and”; a condition that tells them apart may be missing. Equal entries are not always repeated.
Tests used:
[1] = target: T1, Replicase polyprotein 1ab (Severe acute respiratory syndrome coronavirus 2, UniProt P0DTD1); experiment: Functional biochemical assay to identify treatments for viral infectious disease that targets SARS-COV-2 nsp3 macrodomain, whereby the mechanism of action displaces an ADP-Ribose modified peptide from the binding site. Utilizing a time-resolved fluorescence method to measure binding by reading the emitted fluorescence intensity in two wavelengths.
[2] = target: T1, Replicase polyprotein 1ab; experiment: Functional biochemical assay to identify treatments for viral infectious disease that targets SARS-COV-2 nsp3 macrodomain, whereby the mechanism of action inhibits ADP-Ribose hydrolase activity. Utilizing an enzymatic assay to monitor the conversion of alpha-NAD+ to ADP-Ribose and nicotinamide. ADP-ribose was quantified by LC-MS/MS after precipitation of proteins.

SMILES	IC50 [1]	IC50 [2]
CC(C)[C@H](Nc1ncnc2[nH]c(-c3cnn(C)c3C#N)cc12)c1ccc2c(n1)OCCO2	19300 nM and 19100 nM and 30800 nM and 19000 nM	> 4000 nM
Cn1ncc(-c2cc3c(N[C@@H](c4ccc5c(n4)OCCO5)C(C)(C)C)ncnc3[nH]2)c1C#N	46 nM and 30 nM (2×) and 20 nM	133 nM and 191 nM and 235 nM
CC(C)[C@@H](Nc1ncnc2[nH]c(C(=O)N[C@@H]3CCN(C)C3)cc12)c1ccc2c(c1)S(=O)(=O)CCC2	65 nM and 66 nM and 72 nM and 58 nM	479 nM and 316 nM and 454 nM
CNC(=O)c1c[nH]c2ncnc(N[C@H](c3ccc4c(c3)S(=O)(=O)CCC4)C(C)C)c12	120 nM and 110 nM	246 nM
CC(C)(C)[C@@H](Nc1ncnc2[nH]c(-c3cnn(CC(N)=O)c3)cc12)c1ccc2c(n1)OCCO2	82 nM and 64 nM and 54 nM	203 nM
CC(C)[C@@H](Nc1ncnc2[nH]c(-c3cnn(C)c3)cc12)c1ccc2c(c1)S(=O)(=O)CCC2	36 nM and 54 nM and 19 nM and 34 nM (2×) and 17 nM and 29 nM and 27 nM and 35 nM and 15 nM	328 nM and 264 nM
CC(C)[C@H](Nc1ncnc2[nH]ccc12)c1ccc2c(c1)S(=O)(=O)CCC2	93 nM and 138 nM and 85 nM	803 nM and 194 nM and 512 nM
CNCc1cc(-c2cc3c(N[C@@H](c4ccc5c(c4)S(=O)(=O)CCC5)C(C)C)ncnc3[nH]2)co1	25 nM and 41 nM and 22 nM and 19 nM (2×) and 12 nM	289 nM and 396 nM and 533 nM
CC(C)[C@@H](Nc1ncnc2[nH]ccc12)c1ccc2c(c1)NC(=O)CO2	700 nM and 722 nM and 396 nM and 378 nM	2960 nM
Cc1nn(C)cc1-c1cc2c(N[C@H](c3ccc4c(c3)S(=O)(=O)CCC4)C(C)C)ncnc2[nH]1	28 nM (3×) and 14 nM and 32 nM and 13 nM and 24 nM and 36 nM and 12 nM and 11 nM	322 nM and 241 nM and 288 nM
CC(C)[C@@H](Nc1ncnc2[nH]c(-c3cnn(C)c3C#N)cc12)c1ccc2c(n1)OCCO2	68 nM and 74 nM and 40 nM and 29 nM and 59 nM and 67 nM	283 nM and 156 nM and 312 nM
C[C@H](C(=O)O)[C@@H](NC(=O)c1ncnc2[nH]ccc12)c1ccc(Br)cc1	794 nM and 622 nM and 340 nM	1340 nM and 1900 nM and 1800 nM
COc1ccc([C@H](Cc2nnn[nH]2)NC(=O)c2ncnc3[nH]ccc23)cc1	349 nM and 319 nM	2340 nM and 1490 nM and 1610 nM
CNC(=O)Cn1cc(-c2cc3c(N[C@@H](c4ccc5c(c4)S(=O)(=O)CCC5)C(C)C)ncnc3[nH]2)cn1	35 nM and 19 nM and 30 nM and 18 nM and 16 nM and 15 nM and 10 nM	204 nM and 197 nM and 288 nM
CCNC(=O)c1cc2c(N[C@H](c3ccc4c(n3)S(=O)(=O)CCO4)C(C)C)ncnc2[nH]1	110 nM	–
O=C(N[C@@H]1CCC[C@@H]1C(=O)O)c1cnn2ccc(C3CCN(C(=O)c4ccc(Cl)cc4)CC3)cc12	32500 nM and 24500 nM	–
Cc1[nH]c2ncnc(NC(=O)c3ccnnc3)c2c1C	> 99500 nM	–
CC(C)[C@@H](Nc1ncnc2[nH]c(-c3ccc(C4(C#N)CC4)cc3)cc12)c1ccc2c(c1)OCCO2	> 99500 nM	–
CNC(=O)c1cccc(-c2cc3c(N[C@H](c4ccc5c(c4)S(=O)(=O)CCC5)C(C)C)ncnc3[nH]2)c1	14 nM and 26 nM and 10 nM and 20 nM and 22 nM and 27 nM and 29 nM	–

SMILES	IC50 [1]	IC50 [2]
CC(C)[C@H](Nc1ncnc2c1CNCC2)c1ccc2c(c1)S(=O)(=O)CCC2	> 99500 nM	–
O[C@H]1C[C@](CNc2ncnc3[nH]ccc23)(c2ccccc2)C1	> 124000 nM	–
CC(C)[C@@H](Nc1ncnc2[nH]c(-c3cccc(NC(N)=O)c3)cc12)c1ccc2c(c1)OCCO2	5140 nM and 5850 nM	–
COc1ccc(Nc2ncnc3[nH]ccc23)cc1OC	> 99500 nM	–
CNC(=O)c1cc2c(N[C@@H](c3ccc4c(c3)OCCO4)C(C)C)ncnc2[nH]1	450 nM and 366 nM	–
CC(C)[C@@H](Nc1ncnc2[nH]cc(C#N)c12)c1ccc2c(c1)OCCO2	4360 nM and 3820 nM	–
CC(C)[C@@H](Nc1ccncn1)c1ccc2c(c1)S(=O)(=O)CCC2	> 99500 nM	–
Cc1[nH]c2ncnc(C(=O)Nc3ccnc(Cl)c3)c2c1C	> 99500 nM	–
CC(=O)c1ccc(-c2cc3c(N[C@@H](c4ccc5c(c4)OCCO5)C(C)C)ncnc3[nH]2)o1	1510 nM and 1450 nM	–
CC(C)[C@H](Nc1cc(NCC(F)(F)F)ncn1)c1ccc2c(c1)S(=O)(=O)CCC2	> 99500 nM	–
O=C(c1cccnc1S)N1CCC(c2ccn3ncc(C(=O)N4CCCCC4)c3c2)CC1	61600 nM	–
Cc1cc(-c2cc3c(N[C@@H](c4ccc5c(c4)OCCO5)C(C)C)ncnc3[nH]2)co1	8700 nM and 13600 nM and 17000 nM	–
CC(C)[C@H](Nc1ncnc(O)c1Cl)c1ccc2c(c1)S(=O)(=O)CCC2	> 99500 nM	–
CC(C)[C@@H](Nc1ccnc2nccn12)c1ccc2c(c1)S(=O)(=O)CCC2	> 99500 nM	–
CNCc1cc(-c2cc3c(N[C@@H](c4ccc5c(c4)OCCO5)C(C)C)ncnc3[nH]2)co1	281 nM and 383 nM	–
O=C(Nc1cccc2c(C(=O)N[C@@H]3c4ccccc4C[C@@H]3C(=O)O)c[nH]c12)NC1CC1	3470 nM and 3780 nM and 2280 nM and 1850 nM	–
Cc1ncc(CCNC(=O)c2csc3c(NC(=O)NC4CC4)ncnc23)s1	> 99500 nM	–
O=C(Nc1ccc(C(=O)Nc2c(C(=O)O)sc3ncccc23)cc1)NC1CC1	> 99500 nM	–
O=C(c1nnn[nH]1)N1CCC(c2ccn3ncc(C(=O)N4CCCCC4)c3c2)CC1	28300 nM	–

SMILES	IC50 [1]	IC50 [2]
CC(C)[C@@H](Oc1ncnc2[nH]ccc12)c1ccc2c(c1)S(=O)(=O)CCC2	6050 nM	–
Cc1cn[nH]c1-c1cc2c(N[C@@H](c3ccc4c(c3)OCCO4)C(C)C)ncnc2[nH]1	6780 nM and 8840 nM and 8770 nM	–
CC(C)[C@@H](Nc1ncnc2[nH]c(C(=O)NC[C@@H]3CCOC3)cc12)c1ccc2c(c1)OCCO2	580 nM and 1150 nM	–
CC(C)[C@@H](Nc1ncnc2[nH]c(-c3ccco3)cc12)c1ccc2c(c1)OCCO2	6200 nM and 6100 nM	–
CC(C)[C@@H](Nc1ncnc2[nH]c(C(=O)NCc3cnco3)cc12)c1ccc2c(c1)OCCO2	639 nM and 1760 nM	–
CC(C)[C@@H](Nc1ncnc2[nH]c(-c3cnc(N)nc3)cc12)c1ccc2c(c1)S(=O)(=O)CCC2	85 nM and 62 nM and 106 nM	–
CC(C)[C@@H](Nc1ncnc2[nH]c(-c3ccc(S(N)(=O)=O)cc3)cc12)c1ccc2c(c1)OCCO2	1630 nM and 1810 nM	–
O=C1NCCc2ccc(CNc3ncnc4[nH]ccc34)cc21	> 99500 nM	–
Cn1ncc2c(NCc3ncccc3O)ncnc21	> 124000 nM	–
FC(F)[C@@H](Nc1ncnc2[nH]ccc12)c1ccc2c(c1)OCCO2	16000 nM and 22800 nM	–
O=C(c1ncc[nH]1)N1CCC(c2ccn3ncc(C(=O)N4CCCCC4)c3c2)CC1	> 99500 nM	–
CC(C)[C@@H](CN1CCCCC1)Nc1ncnc2[nH]ccc12	> 99500 nM	–
O=C(O)C[C@@H](NC(=O)c1cncc2[nH]ccc12)c1ccc(Br)cc1	35800 nM and 41300 nM	–
Cc1occc1-c1cc2c(N[C@@H](c3ccc4c(c3)OCCO4)C(C)C)ncnc2[nH]1	8540 nM and 8990 nM and 9510 nM	–
O=C(O)C[C@@H](NC(=O)c1ccc(NC(=O)NC2CC2)cc1)c1cccc(O)c1	9040 nM and 8760 nM	–
CC(C)[C@@H](Nc1ncnc2[nH]c(C(=O)NC3COC3)cc12)c1ccc2c(c1)OCCO2	743 nM and 1540 nM	–
CC(C)[C@@H](Nc1cc(-n2ccnn2)ncn1)c1ccc2c(c1)S(=O)(=O)CCC2	> 99500 nM	–
CC(C)[C@H](Nc1ncnc2[nH]nnc12)c1ccc2c(c1)S(=O)(=O)CCC2	> 99500 nM	–
CCNC(=O)c1cc2c(N[C@@H](c3ccc4c(n3)NC(=O)CO4)C(C)C)ncnc2[nH]1	1060 nM and 574 nM	–

Source: ChEMBL document CHEMBL5441456, “ASAP - SARS-CoV-2 nsp3 macrodomain dose response” (2024)
